Experimental data: patent publication US20120053053A1, “PYRIMIDINE DERIVATIVES AND THEIR USE AS HERBICIDES” (SYNGENTA CROP PROTECTION, LLC, priority 2009, published 2012)

Tests used:
Format in all cases: in vivo
[1] = system: Amaranthus retoflexus (AMARE); assay: Pre-emergence biological efficacy (percentage damage); conditions: Amaranthus retroflexus, 312 h, dose 1,000 g/ha, evaluated after 13 days, 100=total damage, 0=no damage
Method: (§1) Seeds of Alopecurus myosuroides (ALOMY), Setaria faberi (SETFA), Echinochloa crus-galli (ECHCG), Solanum nigrum (SOLNI), Amaranthus retoflexus (AMARE) and Ipomea hederaceae (IPOHE) were sown in standard soil in pots. After cultivation for one day under controlled conditions in a glasshouse (at 24/16° C., day/night; 14 hours light; 65% humidity), the plants were sprayed with an aqueous spray solution derived from the formulation of the technical active ingredient in acetone/water (50:50) solution containing 0.5% Tween 20 (polyoxyethylene sorbitan monolaurate, CAS RN 9005-64-5) to give a final dose of 250 or 1000 g/ha of test compound. The test plants were then grown under controlled conditions in the glasshouse (at 24/16° C., day/night; 14 hours light; 65% humidity) and watered twice daily. After 13 days the test was evaluated (100=total damage to plant; 0=no damage to plant).

[2] = system: Ipomea hederaceae (IPOHE); assay: as above; conditions: Ipomoea hederacea, 312 h, dose 1,000 g/ha, evaluated after 13 days, 100=total damage, 0=no damage
Method: as §1

[3] = system: Alopecurus myosuroides (ALOMY); assay: as above; conditions: Alopecurus myosuroides, 312 h, dose 1,000 g/ha, evaluated after 13 days, 100=total damage, 0=no damage
Method: as §1

[4] = system: Setaria faberi (SETFA); assay: as above; conditions: Setaria faberi, 312 h, dose 1,000 g/ha, evaluated after 13 days, 100=total damage, 0=no damage
Method: as §1

[5] = system: Solanum nigrum (SOLNI); assay: as above; conditions: Solanum nigrum, 312 h, dose 1,000 g/ha, evaluated after 13 days, 100=total damage, 0=no damage
Method: as §1

[6] = system: Echinochloa crus-galli (ECHCG); assay: as above; conditions: Echinochloa crus-galli, 312 h, dose 1,000 g/ha, evaluated after 13 days, 100=total damage, 0=no damage
Method: as §1

[7] = system: Amaranthus retoflexus (AMARE); assay: Post-emergence biological efficacy (percentage damage); conditions: Amaranthus retroflexus, 312 h, dose 1,000 g/ha, evaluated after 13 days, 100=total damage, 0=no damage
Method: as §1, with “for 8 days” for “for one day”, “grown on” for “grown”, “in a” for “in the”

[8] = system: Ipomea hederaceae (IPOHE); assay: as above; conditions: Ipomoea hederacea, 312 h, dose 1,000 g/ha, evaluated after 13 days, 100=total damage, 0=no damage
Method: as §1, with “for 8 days” for “for one day”, “grown on” for “grown”, “in a” for “in the”

[9] = system: Alopecurus myosuroides (ALOMY); assay: as above; conditions: Alopecurus myosuroides, 312 h, dose 1,000 g/ha, evaluated after 13 days, 100=total damage, 0=no damage
Method: as §1, with “for 8 days” for “for one day”, “grown on” for “grown”, “in a” for “in the”

[10] = system: Setaria faberi (SETFA); assay: as above; conditions: Setaria faberi, 312 h, dose 1,000 g/ha, evaluated after 13 days, 100=total damage, 0=no damage
Method: as §1, with “for 8 days” for “for one day”, “grown on” for “grown”, “in a” for “in the”

[11] = system: Solanum nigrum (SOLNI); assay: as above; conditions: Solanum nigrum, 312 h, dose 1,000 g/ha, evaluated after 13 days, 100=total damage, 0=no damage
Method: as §1, with “for 8 days” for “for one day”, “grown on” for “grown”, “in a” for “in the”

[12] = system: Echinochloa crus-galli (ECHCG); assay: as above; conditions: Echinochloa crus-galli, 312 h, dose 1,000 g/ha, evaluated after 13 days, 100=total damage, 0=no damage
Method: as §1, with “for 8 days” for “for one day”, “grown on” for “grown”, “in a” for “in the”

Row | Structure (SMILES) | pest or weed control at 1000 g/ha [1] [%] | pest or weed control at 1000 g/ha [2] [%] | pest or weed control at 1000 g/ha [3] [%] | pest or weed control at 1000 g/ha [4] [%] | pest or weed control at 1000 g/ha [5] [%] | pest or weed control at 1000 g/ha [6] [%] | pest or weed control at 1000 g/ha [7] [%] | pest or weed control at 1000 g/ha [8] [%] | pest or weed control at 1000 g/ha [9] [%] | pest or weed control at 1000 g/ha [10] [%] | pest or weed control at 1000 g/ha [11] [%] | pest or weed control at 1000 g/ha [12] [%]
1 | C=Cc1c(SC)nc(C2CC2)nc1C(=O)OC [Compound 2-400, 2-cyclopropyl-5-ethenyl-6-methoxycarbonyl-4-methylthio-pyrimidine] | 90 | 60 | 0 | 0 | 100 | 0 | 80 | 60 | 0 | 0 | 100 | 0
2 | C=Cc1c(C(=O)OC)nc(C2CC2)nc1S(C)(=O)=O [Compound 2-402, 2-cyclopropyl-5-ethenyl-6-methoxycarbonyl-4-methylsulphonyl-pyrimidine] | 0 | 0 | 0 | 0 | 0 | 0 | 0 | 50 | 0 | 0 | 20 | 0
3 | COC(=O)c1nc(-c2ccc(Cl)cc2)nc(N)c1C [Compound 5-41] | 100 | 10 | 20 | 30 | 30 | 30 | 100 | 40 | 30 | 30 | 70 | 20
4 | C=Cc1c(N)nc(-c2ccc(Cl)cc2)nc1C(=O)OC [Compound 5-61, 4-Amino-2-(4-chlorophenyl)-5-ethenyl-6-methoxycarbonyl-pyrimidine] | 100 | 90 | 60 | 60 | 90 | 60 | 100 | 100 | 80 | 100 | 100 | 90
5 | C=Cc1c(N)nc(-c2ccc(Br)cc2)nc1C(=O)OC [Compound 6-61, 4-Amino-2-(4-bromophenyl)-5-ethenyl-6-methoxycarbonyl-pyrimidine] | 100 | 80 | 70 | 30 | 90 | 50 | 100 | 70 | 60 | 30 | 90 | 50
6 | C=Cc1c(N)nc(-c2ccc(Cl)c(Cl)c2)nc1C(=O)OC [Compound 9-61, 4-Amino-2-(3,4-dichlorophenyl)-5-ethenyl-6-methoxycarbonyl-pyrimidine] | 90 | 10 | 0 | 0 | 70 | 30 | 100 | 70 | 20 | 0 | 90 | 20
7 | C=Cc1c(N)nc(-c2ccc(Cl)c(C(F)(F)F)c2)nc1C(=O)OC [Compound 14-61, 4-Amino-2-(4-chloro-3-trifluoromethyl-phenyl)-5-ethenyl-6-methoxycarbonyl-pyrimidine] | 60 | 10 | 10 | 10 | 40 | 20 | 10 | 40 | 0 | 0 | 80 | 0
8 | C=Cc1c(N)nc(-c2ccc(Cl)cc2F)nc1C(=O)OC [Compound 15-61, 4-Amino-2-(4-chloro-2-fluorophenyl)-5-ethenyl-6-methoxycarbonyl-pyrimidine] | 100 | 100 | 80 | 70 | 100 | 70 | 100 | 80 | 90 | 70 | 100 | 70
9 | C=Cc1c(N)nc(-c2ccc(Cl)c(F)c2)nc1C(=O)OC [Compound 19-61, 4-Amino-2-(4-chloro-3-fluorophenyl)-5-ethenyl-6-methoxycarbonyl-pyrimidine] | 100 | 100 | 50 | 30 | 100 | 70 | 100 | 100 | 40 | 40 | 100 | 60
10 | C=Cc1c(N)nc(-c2ccc(Cl)c(OC)c2)nc1C(=O)OC [Compound 26-61, 4-Amino-2-(4-chloro-3-methoxyphenyl)-5-ethenyl-6-methoxycarbonyl-pyrimidine] | 100 | 20 | 0 | 0 | 80 | 0 | 100 | 70 | 50 | 0 | 80 | 60
11 | C=Cc1c(N)nc(-c2ccc(Cl)c(OC)c2F)nc1C(=O)O [Compound 27-21, 4-amino-2-(4-chloro-2-fluoro-3-methoxyphenyl)-5-ethenylpyrimidine-6-carboxylic acid] | 100 | 100 | 90 | 100 | 100 | 100 | 100 | 90 | 90 | 100 | 90 | 90
12 | COC(=O)c1nc(-c2ccc(Cl)c(OC)c2F)nc(N)c1C [Compound 27-41] | 50 | 90 | 30 | 10 | 80 | 20 | 100 | 60 | 30 | 80 | 80 | 50
